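Cultured in 96-well plates, cells were exposed to test compound for 48 hours across five concentrations. GI50: concentration for 50% inhibition of growth. Definition used: TGI = concentration required for complete inhibition of growth.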
Legend:
Assay in all cases: inhibition of tumour cell growth, NCI panel, 48 h
K-562 leukemia = test system: K-562 leukemia
HCT-15 colon = test system: HCT-15 colon
COLO 205 colon = test system: COLO 205 colon
OVCAR-3 ovarian = test system: OVCAR-3 ovarian
KM12 colon = test system: KM12 colon
SF-268 CNS = test system: SF-268 CNS
SR leukemia = test system: SR leukemia
NCI/ADR-RES ovarian = test system: NCI/ADR-RES ovarian
HOP-92 NSCLC = test system: HOP-92 NSCLC
HT29 colon = test system: HT29 colon
SK-MEL-2 melanoma = test system: SK-MEL-2 melanoma
HCC-2998 colon = test system: HCC-2998 colon
MALME-3M melanoma = test system: MALME-3M melanoma
RPMI-8226 leukemia = test system: RPMI-8226 leukemia
HOP-62 NSCLC = test system: HOP-62 NSCLC
PC-3 prostate = test system: PC-3 prostate
CAKI-1 renal = test system: CAKI-1 renal
BT-549 breast = test system: BT-549 breast
T-47D breast = test system: T-47D breast
SN12C renal = test system: SN12C renal
SF-539 CNS = test system: SF-539 CNS
CCRF-CEM leukemia = test system: CCRF-CEM leukemia
U251 CNS = test system: U251 CNS
UACC-62 melanoma = test system: UACC-62 melanoma
OVCAR-8 ovarian = test system: OVCAR-8 ovarian
SNB-19 CNS = test system: SNB-19 CNS
A549 NSCLC = test system: A549 NSCLC
NCI-H226 lung = test system: NCI-H226 lung
UACC-257 melanoma = test system: UACC-257 melanoma

O=C(CN1CCN(C(=O)c2ccco2)CC1)Nc1ccc(Cl)cc1C(=O)c1ccccc1Cl
GI50 (K-562 leukemia): 0.691 µM | TGI (K-562 leukemia): 10.5 µM | GI50 (HCT-15 colon): 5.14 µM | TGI (HCT-15 colon): 39.7 µM | GI50 (COLO 205 colon): 7.32 µM | TGI (COLO 205 colon): 23.7 µM | GI50 (OVCAR-3 ovarian): 5.53 µM | TGI (OVCAR-3 ovarian): 17.5 µM | GI50 (KM12 colon): 7.33 µM | TGI (KM12 colon): 20.9 µM | GI50 (SF-268 CNS): 14.7 µM | TGI (SF-268 CNS): 43.1 µM | GI50 (SR leukemia): 0.896 µM | TGI (SR leukemia): 2.76 µM | GI50 (NCI/ADR-RES ovarian): 10 µM | TGI (NCI/ADR-RES ovarian): 43.8 µM | GI50 (HOP-92 NSCLC): 4.45 µM | TGI (HOP-92 NSCLC): 24.1 µM | GI50 (HT29 colon): 6.23 µM | TGI (HT29 colon): 22.3 µM | GI50 (SK-MEL-2 melanoma): 3.14 µM | TGI (SK-MEL-2 melanoma): 17.5 µM | GI50 (HCC-2998 colon): 14.8 µM | TGI (HCC-2998 colon): 29.4 µM | GI50 (MALME-3M melanoma): 7 µM | TGI (MALME-3M melanoma): 22.2 µM | GI50 (RPMI-8226 leukemia): 1.33 µM | TGI (RPMI-8226 leukemia): 12.1 µM | GI50 (HOP-62 NSCLC): 16.9 µM | TGI (HOP-62 NSCLC): 35.6 µM | GI50 (PC-3 prostate): 2.75 µM | TGI (PC-3 prostate): 16.3 µM | GI50 (CAKI-1 renal): 0.0273 µM | TGI (CAKI-1 renal): 6.42 µM | GI50 (BT-549 breast): 2.62 µM | TGI (BT-549 breast): 13.1 µM | GI50 (T-47D breast): 2.32 µM | TGI (T-47D breast): 15.4 µM | GI50 (SN12C renal): 14.6 µM | TGI (SN12C renal): 44.7 µM | GI50 (SF-539 CNS): 13.6 µM | TGI (SF-539 CNS): 26.9 µM | GI50 (CCRF-CEM leukemia): 5.28 µM | TGI (CCRF-CEM leukemia): > 100 µM | GI50 (U251 CNS): 8 µM | TGI (U251 CNS): 23.6 µM | GI50 (UACC-62 melanoma): 8.85 µM | TGI (UACC-62 melanoma): 23.4 µM | GI50 (OVCAR-8 ovarian): 11.5 µM | TGI (OVCAR-8 ovarian): 53.8 µM | GI50 (SNB-19 CNS): 12.1 µM | TGI (SNB-19 CNS): 94.7 µM | GI50 (A549 NSCLC): 5.61 µM | TGI (A549 NSCLC): 39.4 µM | GI50 (NCI-H226 lung): 13.3 µM | TGI (NCI-H226 lung): 44.8 µM | GI50 (UACC-257 melanoma): 12.5 µM | TGI (UACC-257 melanoma): 31.8 µM
